# Source: patent US20090029957A1, “8-BETA-SUBSTITUTED ESTRATRIENES AS SELECTIVELY ACTIVE ESTROGENS” (priority 2007, published 2009)
# Where two headings read alike, the source gives them in different places.
# Assays:
# [1] = test system: hERβ; test: Relative binding affinity to hERβ (Kuiper et al.); design: species or system human; conditions: quotient of RBA hERβ to hERα
# Source text: (§1) In this case, it is assumed that ERβ predominates in the rat prostates over ERα, and ERα predominates in rat uteri over ERβ.
# [2] = test system: estrogen receptor preparations from rat uteri; test: Competitive 3H-estradiol binding, rat uterus cytosol estrogen receptor; conditions: 3H-estradiol as ligand
# Source text: as §1
# [3] = test system: estrogen receptor preparations from rat prostates; test: Competitive 3H-estradiol binding, rat prostate cytosol estrogen receptor; conditions: for Rat prost. ER(RBA): 3H-estradiol as ligand; for prost. ER/uterus ER: ratio of RBA rat prostate ER to rat uterus ER
# Source text: as §1
# [4] = test system: hERβ; conditions: cited from earlier work
# [5] = test system: adult female rats; test: Dissociation of action of the uterus and pituitary gland (uterus growth and ovulation); format: in vivo, rat; conditions: s.c., four times on four consecutive days
# Description: The studies with respect to the action on uterus growth and ovulation (indirect effect by influencing the secretion of pituitary gland hormones) are performed on adult female rats (body weight of 220-250 g). The substances are subcutaneously administered four times on four consecutive days. The first administration is carried out in the metestrus. One day after the last administration, the autopsy is carried out. The number of oocytes in the Fallopian tube (effect on the ovulation) as well as the uterus weight are determined.
Compound,"Rat uterus ER(RBA) ([2]; Table 1, estradiol = 100)","Rat prost. ER(RBA) ([3]; Table 1, estradiol = 100)",Rat uterus ER(RBA) ([2]; Table 2),Rat prost. ER(RBA) ([3]; Table 2),prost. ER/uterus ER ([3]; Table 2),also measured
C[C@]12CC[C@H](O)CC1=CCC1C2CC[C@@]2(C)C1CC[C@@H]2O (stereo partly drawn) [5-Andro-stene-diol],0.1,5,–,–,–,ERβ/ERα [1]: 3; prost. ER/uterus ER ([3]; Table 1): 50; hERβ RBA* [4]: 17
"C=C[C@@]12CCc3cc(O)ccc3[C@H]1CC[C@@]1(C)[C@H]2C[C@@H](F)[C@@H]1O [Compound 1, 8β-Vinyl-estra-1,3,5(10)-16α-fluoro-3,17β-diol]",–,–,1.7,167,98,–
"C=C[C@@]12CCc3cc(O)ccc3[C@H]1CC[C@@]1(C)[C@H]2CC[C@@H]1O [Compound 2, 8β-Vinyl-estra-1,3,5(10)-3,17β-diol]",–,–,0.7,63,90,–
C[C@]12CCC3c4ccc(O)cc4CCC3C1CC[C@@H]2O (stereo partly drawn) [Estradiol],100,100,–,–,–,"ED50, dose-dependent ovulation inhibition and increase in uterus weight [5]: 0.004 mg/kg of body weight"
C[C@]12CC[C@@H]3c4ccc(O)cc4CC[C@H]3[C@@H]1C[C@@H](O)[C@@H]2O [Estriol],–,–,–,–,–,"hERβ RBA* ([4]; relative binding affinity, estradiol = 100, cited from Kuiper et al.): 21"
